From patent US20180264121A1, “CANNABINOID-CONTAINING ORAL PHARMACEUTICAL COMPOSITION, METHOD FOR PREPARING AND USING SAME” (PRATI-DONADUZZI & CIA LTDA., priority 2015, published 2018)

Assay: Solubility of the API (quality-control specification)
Format: physicochemical
Source text: Validated Analytical Methodology and Acceptable Limits to Ensure Identity, Quality and Purity of the API.

C=C(C)[C@@H]1CCC(C)=C[C@H]1c1c(O)cc(CCCCC)cc1O [API, cannabidiol]
SOLUBILITY (in chloroform): SOLUBLE | SOLUBILITY (in ethanol 96%): SOLUBLE | SOLUBILITY (in hexane): SLIGHTLY SOLUABLE IN HEXANE | SOLUBILITY (in purified water): INSOLUBLE
